From EP2958918B1, “DIHYDROPTERIDINONES II” (Boehringer Ingelheim International GmbH, priority 2013, dated 2014)
pIC50: −log10 of the molar value.

What was measured:
Aβ42 = Aβ42 cellular assay: inhibition of Aβ42 production in H4 neuroglioma cells stably expressing human APP695, electrochemiluminescence (Meso Scale Discovery) on supernatant; format: cell-based; details: 22 hours incubation, tested range 30 µM to 0.1 nM
Protocol: (§1) Cells were plated out to near confluency. The compounds to be tested were received as 10 mM stocks in 100% DMSO. A dilution series was initially generated in 100% DMSO and then diluted 200-fold in cell culture media such that the tested concentration range was 30 µM to 0.1 nM and the final DMSO concentration was 0.5%. The diluted compounds were incubated with the cells for 22 hours in an incubator at 37°C and 5% CO2. Aβ42 as well as Aβ total levels were then measured post-incubation from the supernatant of the cells. Aβ42 levels were determined using a specific electrochemiluminescence assay provided by Meso Scale Discovery (Catalog # L21CA-1) according to the manufacturer's protocol. Aβ total levels were likewise determined using a specific electrochemiluminescence assay provided by Meso Scale Discovery (Catalog # L21ZA-1) according to the manufacturer's protocol.
(§2) In order to absolutely define the described compounds as modulators of y-Secretase as opposed to simply inhibitors of γ-Secretase, measurements of not only Aβ42 but also Aβ total are performed.

Aβ total = Aβ total cellular assay: inhibition of Aβ total production in H4 neuroglioma cells stably expressing human APP695, electrochemiluminescence (Meso Scale Discovery) on supernatant; used for the ratio Aβ total IC50 / Aβ42 IC50; format: cell-based; details: higher ratio = more specific inhibition of Aβ42
Protocol: as §1, §2

| Structure (SMILES) | pIC50 (Aβ42) | Ratio Aß(total)/Aß42 (Aβ total) |
| --- | --- | --- |
| COc1cc(Nc2ncc3c(n2)N(C2CCCC2)C2(CC2)C(=O)N3C)ccc1-n1cnc(C)c1 [Example 38] | 6.39 | >15 |
| COCCN1C(=O)C2(CCOCC2)N(C)c2nc(Nc3ccc(-n4cnc(C)c4)c(OC)c3)ncc21 [Example 11] | 6.51 | 26 |
| COc1cc(Nc2ncc3c(n2)N(CC2CCOCC2)C2(CCOC2)C(=O)N3CC2CCOCC2)ccc1-n1cnc(C)c1 (stereo not shown) [Example 24] | 5.52 | >10 |
| COc1cc(Nc2ncc3c(n2)N(C)C2(COCCOC2)C(=O)N3)ccc1-n1cnc(C)c1 [Example 25] | 6.54 | 91 |
| COCCN1c2nc(Nc3ccc(-c4cnc(C)o4)c(OC)c3)nc(CC(C)C)c2N(C)C(=O)C12CCOC2 (stereo not shown) [Example 31] | 6.74 | 47 |
| COc1cc(Nc2ncc3c(n2)N(C)C2(CCOC2)C(=O)N3)ccc1-n1cnc(C)c1 (stereo not shown) [Example 10] | 6.21 | 46 |
| COc1cc(Nc2ncc3c(n2)N(C)C2(CCOCC2)C(=O)N3C2CC2)ccc1-n1cnc(C)c1 [Example 37b] | 6.76 | 47 |
| COc1cc(Nc2ncc3c(n2)N(C)C2(CC4CCC2C4)C(=O)N3C)cnc1-n1cnc(C)c1 (stereo not shown) [Example 49] | 7.02 | 69 |
| COCCN1c2nc(Nc3ccc(-n4cnc(C)c4)c(OC)c3)nc(CC(C)C)c2N(C)C(=O)C12CCOC2 (stereo not shown) [Example 30] | 7.00 | 96 |
| COc1cc(Nc2nc(CC(C)C)c3c(n2)N(C)C2(CCOC2)C(=O)N3C)ccc1-n1cnc(C)c1 (stereo not shown) [Example 32] | 7.10 | 124 |
| COc1cc(Nc2ncc3c(n2)N(C)C2(CCOCC2)C(=O)N3)ccc1-n1cnc(C)c1 [Example 9] | 6.52 | > 101 |
| COc1cc(Nc2ncc3c(n2)NC2(CCOC2)C(=O)N3CCC(C)C)ccc1-n1cnc(C)c1 (stereo not shown) [Example 29] | 6.57 | 39 |
| COc1cc(Nc2ncc3c(n2)N(C)C2(CC2)C(=O)N3CC(F)(F)F)ccc1-n1ccnc1C [Example 51] | 7.23 | 126 |
| COc1cc(Nc2ncc3c(n2)N(C)C2(CC2)C(=O)N3CC(F)(F)F)cnc1-n1cnc(C)c1 [Example 50] | 6.69 | > 147 |
| COc1cc(Nc2ncc3c(n2)N(C)C2(CCCC2)C(=O)N3CC(F)(F)F)ccc1-n1cnc(C)c1 [Example 54] | 7.66 | 116 |
| COCCN1C(=O)C2(CCOC2)N(C)c2nc(Nc3ccc(-n4cnc(C)c4)c(OC)c3)ncc21 (stereo not shown) [Example 16] | 6.74 | 88 |
| CCc1nc(Nc2ccc(-n3cnc(C)c3)c(OC)c2)nc2c1N(C)C(=O)C1(CCOC1)N2C (stereo not shown) [Example 34] | 7.14 | 115 |
| CCCN1C(=O)C2(CCOCC2)N(C)c2nc(Nc3ccc(-n4cnc(C)c4)c(OC)c3)ncc21 [Example 17] | 7.03 | 65 |
| COc1cc(Nc2ncc3c(n2)N(C)C2(CC2)C(=O)N3C2COC2)ccc1-n1cnc(C)c1 [Example 47] | 6.72 | 98 |
| COCCN1C(=O)C2(CCOCC2)N(C)c2nc(Nc3ccc(-n4cnc(C)n4)c(OC)c3)ncc21 [Example 13] | 5.66 | >13 |
| COc1cc(Nc2ncc3c(n2)N(C)C2(CCOC2)C(=O)N3CC2CCOCC2)ccc1-n1cnc(C)c1 (stereo not shown) [Example 26] | 6.46 | 46 |
| COc1cc(Nc2ncc3c(n2)NC2(CCOC2)C(=O)N3C2COC2)ccc1-n1cnc(C)c1 (stereo not shown) [Example 28] | 4.98 | >3 |
| Cc1cn(-c2ccc(Nc3ncc4c(n3)NC3(CCOC3)C(=O)N4C)cc2C#N)cn1 (stereo not shown) [Example 19] | 6.55 | > 257 |
| COc1cc(Nc2ncc3c(n2)N(C)C2(CCOC2)C(=O)N3C2CC2)ccc1-n1cnc(C)c1 (stereo not shown) [Example 37g] | 6.71 | 58 |
| COc1cc(Nc2ncc3c(n2)N(C)C2(CC2)C(=O)N3CC(F)(F)F)ccc1-n1cnc(C)c1 [Example 44] | 7.07 | 50 |
| COc1cc(Nc2ncc3c(n2)N(C)C2(CC2)C(=O)N3CC(F)F)ccc1-n1cnc(C)c1 [Example 52] | 6.96 | 61 |
| COc1cc(Nc2nc(CC(C)C)c3c(n2)NC2(CCOC2)C(=O)N3)ccc1-n1cnc(C)c1 (stereo not shown) [Example 33] | 6.85 | 124 |
| COc1cc(Nc2ncc3c(n2)NC2(CCOC2)C(=O)N3CC2CCOCC2)ccc1-n1cnc(C)c1 (stereo not shown) [Example 22] | 5.48 | >9 |

The next lines start with results.

| pIC50 (Aβ42) | Structure (SMILES) | Ratio Aß(total)/Aß42 (Aβ total) |
| --- | --- | --- |
| 5.91 | COc1cc(Nc2ncc3c(n2)N(C)C2(COC2)C(=O)N3C)ccc1-n1cnc(C)c1 [Example 41] | > 25 |
| 6.92 | COc1cc(Nc2ncc3c(n2)N(C)C2(CCOC2)C(=O)N3C(C)c2ccccn2)ccc1-n1cnc(C)c1 (stereo not shown) [Example 37k] | 88 |
| 7.16 | COc1cc(Nc2ncc3c(n2)N(C)C2(CCc4ccccc4C2)C(=O)N3C)ccc1-n1cnc(C)c1 (stereo not shown) [Example 36] | 179 |
| 6.41 | COc1cc(Nc2ncc3c(n2)N(C)C2(CCOC2)C(=O)N3c2ccc(C(F)(F)F)cn2)ccc1-n1cnc(C)c1 (stereo not shown) [Example 48] | 22 |
| 5.49 | Cc1ncc(-c2ccc(Nc3nc(C)c4c(n3)N(C)C3(CCOCC3)C(=O)N4C)cn2)o1 [Example 5] | >9 |
| 7.41 | COc1cc(Nc2ncc3c(n2)N(C)C2(CCOC2)C(=O)N3C(C)C)ccc1-n1cnc(C)c1 (stereo not shown) [Example 23] | 599 |
| 7.24 | COc1cc(Nc2ncc3c(n2)N(C)C2(CCC2)C(=O)N3CC(F)(F)F)ccc1-c1cnc(C)o1 [Example 45] | > 517 |
| 6.52 | Cc1cn(-c2ccc(Nc3ncc4c(n3)N(C)C3(CCOC3)C(=O)N4C)cc2C#N)cn1 (stereo not shown) [Example 18] | 145 |
| 5.52 | Cc1ncc(-c2ccc(Nc3ncc4c(n3)N(C)C3(CCOC3)C(=O)N4C)cn2)o1 (stereo not shown) [Example 8] | >10 |
| 6.57 | COc1cc(Nc2ncc3c(n2)N(C)C2(COCCOC2)C(=O)N3C)ccc1-n1cnc(C)c1 [Example 27] | > 112 |
| 6.84 | COc1cc(Nc2ncc3c(n2)N(C)C2(CCOCC2)C(=O)N3c2ccc(F)cc2)ccc1-n1cnc(C)c1 [Example 37f] | 55 |
| 6.31 | COc1cc(Nc2nc3c(c(C(C)(C)O)n2)N(C)C(=O)C2(CCOC2)N3C)ccc1-c1cnc(C)o1 (stereo not shown) [Example 40] | > 62 |
| 5.27 | Cc1ncc(-c2ccc(Nc3ncc4c(n3)N(C)C3(CCOCC3)C(=O)N4C)cn2)o1 [Example 3] | >6 |
| 7.11 | COc1cc(Nc2ncc3c(n2)N(C)C2(CCCCOC2)C(=O)N3C)ccc1-n1cnc(C)c1 (stereo not shown) [Example 39] | 91 |
| 7.14 | COc1cc(Nc2ncc3c(n2)N(C)C2(CCOCC2)C(=O)N3Cc2ccc(F)cc2F)ccc1-n1cnc(C)c1 [Example 37j] | 57 |
| 6.69 | COc1cc(Nc2ncc3c(n2)N(C)C2(CCCOCC2)C(=O)N3C)ccc1-n1cnc(C)c1 (stereo not shown) [Example 42] | 51 |
| 6.91 | COc1cc(Nc2ncc3c(n2)N(C)C2(CCOC2)C(=O)N3CC(F)F)ccc1-n1cnc(C)c1 (stereo not shown) [Example 37h] | 85 |
| 6.66 | COc1cc(Nc2ncc3c(n2)N(C)C2(CCOC2)C(=O)N3C)ccc1-n1cnc(C)c1 (stereo not shown) [Example 6] | > 136 |
| 6.92 | COc1cc(Nc2ncc3c(n2)N(C)C2(CCOCC2)C(=O)N3C)ccc1-c1cnc(C)o1 [Example 1] | > 244 |
| 7.02 | COc1cc(Nc2ncc3c(n2)N(C)C2(CCOC2)C(=O)N3C)ccc1-c1cnc(C)o1 (stereo not shown) [Example 7] | > 315 |
| 7.22 | COc1cc(Nc2ncc3c(n2)N(C)C2(CCOC2)C(=O)N3c2ccc(F)cc2)ccc1-n1cnc(C)c1 (stereo not shown) [Example 37a] | 307 |
| 6.72 | COc1cc(Nc2ncc3c(n2)N(C)C2(CCOCC2)C(=O)N3C)ccc1-n1cnc(C)c1 [Example 2] | 89 |
| 5.72 | COCCN1C(=O)C2(CCOCC2)N(C)c2nc(Nc3ccc(-c4ccnc(C)c4)cc3)ncc21 [Example 12] | 11 |
| 7.01 | COc1cc(Nc2ncc3c(n2)N(C)C2(CC2)C(=O)N3c2ccc(F)cc2)ccc1-n1cnc(C)c1 [Example 46] | > 306 |
| 6.91 | COc1cc(Nc2ncc3c(n2)N(C)C2(CCC2)C(=O)N3C)ccc1-n1cnc(C)c1 [Example 43] | 237 |
| 5.68 | COCCN1C(=O)C2(CCOC2)N(C)c2nc(Nc3ccc(-n4cnc(C)n4)c(OC)c3)ncc21 (stereo not shown) [Example 15] | >15 |
| 6.03 | Cc1ncc(-c2ccc(Nc3ncc4c(n3)N(C)C3(CCc5ccccc5C3)C(=O)N4C)cn2)o1 (stereo not shown) [Example 37] | 29 |
| 5.85 | COCCN1C(=O)C2(CCOC2)N(C)c2nc(Nc3ccc(-c4ccnc(C)c4)cc3)ncc21 (stereo not shown) [Example 14] | > 27 |
